Assay results reported in patent publication US10308639B2, “Phosphatidylinositol 3-kinase inhibitors” (Gilead Sciences, Inc., priority 2014, dated 2019).
Like-named read-outs stand apart in the source and are kept apart here.

Columns and labels:
Format in all cases: biochemical
PI3Kβ = target: T1, PI3Kβ (Homo sapiens, UniProt P42338); assay: TR-FRET enzymatic activity assay, PI3Kβ
T1 construct: made in house

PI3Kδ = target: T2, PI3Kδ (Homo sapiens, UniProt O00329); assay: TR-FRET enzymatic activity assay, PI3Kδ
T2 construct: made in house
T2 sequence (O00329 whole entry): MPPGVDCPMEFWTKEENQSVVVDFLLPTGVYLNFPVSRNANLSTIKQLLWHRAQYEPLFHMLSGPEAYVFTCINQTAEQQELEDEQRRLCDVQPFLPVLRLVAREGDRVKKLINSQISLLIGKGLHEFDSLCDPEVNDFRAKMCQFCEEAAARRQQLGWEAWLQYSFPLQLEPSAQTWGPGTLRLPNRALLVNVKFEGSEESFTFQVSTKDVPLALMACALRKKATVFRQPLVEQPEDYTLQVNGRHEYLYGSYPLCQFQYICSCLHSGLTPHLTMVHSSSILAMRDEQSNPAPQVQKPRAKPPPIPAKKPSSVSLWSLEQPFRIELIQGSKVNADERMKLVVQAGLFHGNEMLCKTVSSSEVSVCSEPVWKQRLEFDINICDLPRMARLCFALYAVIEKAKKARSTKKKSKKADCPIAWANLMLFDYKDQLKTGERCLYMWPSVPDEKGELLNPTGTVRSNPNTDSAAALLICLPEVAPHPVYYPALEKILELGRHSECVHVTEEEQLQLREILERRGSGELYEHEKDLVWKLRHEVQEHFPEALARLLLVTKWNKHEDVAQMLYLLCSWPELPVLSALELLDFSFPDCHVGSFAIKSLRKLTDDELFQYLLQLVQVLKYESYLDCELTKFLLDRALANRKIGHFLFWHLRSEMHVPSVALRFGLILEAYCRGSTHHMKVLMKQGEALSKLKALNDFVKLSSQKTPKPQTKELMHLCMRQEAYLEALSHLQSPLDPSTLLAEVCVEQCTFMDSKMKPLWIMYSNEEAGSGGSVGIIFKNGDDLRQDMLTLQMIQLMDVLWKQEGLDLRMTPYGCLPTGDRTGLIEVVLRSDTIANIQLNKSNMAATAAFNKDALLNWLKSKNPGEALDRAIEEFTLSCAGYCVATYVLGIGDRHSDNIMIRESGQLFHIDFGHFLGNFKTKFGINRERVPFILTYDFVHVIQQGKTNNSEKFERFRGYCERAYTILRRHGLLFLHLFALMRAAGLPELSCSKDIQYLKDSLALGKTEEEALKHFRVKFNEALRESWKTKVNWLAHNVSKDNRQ
T2 sequence (P27986 whole entry partner): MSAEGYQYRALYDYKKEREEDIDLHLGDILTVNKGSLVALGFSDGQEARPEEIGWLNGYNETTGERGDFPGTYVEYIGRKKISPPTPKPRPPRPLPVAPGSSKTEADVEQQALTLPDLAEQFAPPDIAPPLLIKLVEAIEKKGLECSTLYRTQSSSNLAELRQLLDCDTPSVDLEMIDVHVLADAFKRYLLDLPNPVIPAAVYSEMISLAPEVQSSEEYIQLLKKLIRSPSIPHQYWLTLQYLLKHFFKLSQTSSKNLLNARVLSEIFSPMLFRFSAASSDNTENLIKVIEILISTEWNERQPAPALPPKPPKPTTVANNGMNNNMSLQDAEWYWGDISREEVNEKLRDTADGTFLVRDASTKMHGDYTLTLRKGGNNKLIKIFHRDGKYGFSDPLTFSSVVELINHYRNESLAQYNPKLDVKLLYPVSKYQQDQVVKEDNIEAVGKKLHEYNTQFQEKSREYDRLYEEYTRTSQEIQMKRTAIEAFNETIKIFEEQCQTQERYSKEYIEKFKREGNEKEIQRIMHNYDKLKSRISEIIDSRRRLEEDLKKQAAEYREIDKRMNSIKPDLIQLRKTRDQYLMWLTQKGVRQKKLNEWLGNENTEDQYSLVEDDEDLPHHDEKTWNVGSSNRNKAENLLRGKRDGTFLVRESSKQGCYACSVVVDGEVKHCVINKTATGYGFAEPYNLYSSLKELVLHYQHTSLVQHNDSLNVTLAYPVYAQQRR

PI3Kγ = target: T3, PI3Kγ (Homo sapiens, UniProt P48736); assay: TR-FRET enzymatic activity assay, PI3Kγ; details: read-out: PI3Kγ IC50
T3 construct: made in house
T3 sequence (P48736 whole entry): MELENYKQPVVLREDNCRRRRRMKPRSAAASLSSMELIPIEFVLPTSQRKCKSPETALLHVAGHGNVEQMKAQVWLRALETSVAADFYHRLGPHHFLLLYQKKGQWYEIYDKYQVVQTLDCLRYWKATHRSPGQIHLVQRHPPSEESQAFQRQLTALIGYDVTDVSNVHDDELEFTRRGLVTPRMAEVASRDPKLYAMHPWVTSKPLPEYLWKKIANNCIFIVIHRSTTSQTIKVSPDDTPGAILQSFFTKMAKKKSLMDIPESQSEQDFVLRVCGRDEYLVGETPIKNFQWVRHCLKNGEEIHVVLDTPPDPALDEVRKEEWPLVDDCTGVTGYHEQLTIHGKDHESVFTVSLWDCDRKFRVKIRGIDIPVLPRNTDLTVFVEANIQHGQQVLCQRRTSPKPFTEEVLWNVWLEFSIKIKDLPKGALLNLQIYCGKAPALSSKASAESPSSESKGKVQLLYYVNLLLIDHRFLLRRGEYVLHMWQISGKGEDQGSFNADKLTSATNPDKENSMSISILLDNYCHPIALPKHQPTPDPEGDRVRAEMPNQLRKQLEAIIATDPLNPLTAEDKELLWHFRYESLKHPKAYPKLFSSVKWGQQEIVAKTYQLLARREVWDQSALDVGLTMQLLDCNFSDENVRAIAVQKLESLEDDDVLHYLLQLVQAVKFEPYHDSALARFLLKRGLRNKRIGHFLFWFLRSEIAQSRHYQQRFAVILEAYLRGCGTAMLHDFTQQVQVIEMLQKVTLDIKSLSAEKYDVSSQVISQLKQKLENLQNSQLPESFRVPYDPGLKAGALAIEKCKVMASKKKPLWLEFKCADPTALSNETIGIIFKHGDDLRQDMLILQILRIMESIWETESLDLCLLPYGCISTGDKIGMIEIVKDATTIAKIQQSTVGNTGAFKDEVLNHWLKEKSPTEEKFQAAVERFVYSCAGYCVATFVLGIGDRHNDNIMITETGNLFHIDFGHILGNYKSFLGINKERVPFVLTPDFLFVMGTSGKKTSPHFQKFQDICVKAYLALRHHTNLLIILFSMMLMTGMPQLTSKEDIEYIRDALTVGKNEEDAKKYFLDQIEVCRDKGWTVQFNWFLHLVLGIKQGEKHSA
Outline: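 Compounds were profiled per isoform in a biochemical kinase reaction, with activity detected by time-resolved fluorescence resonance energy transfer.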

[1] = Table 2, TR-FRET, 2x Km ATP, 30 minutes at 25° C.

T1 sequence (P42338 whole entry): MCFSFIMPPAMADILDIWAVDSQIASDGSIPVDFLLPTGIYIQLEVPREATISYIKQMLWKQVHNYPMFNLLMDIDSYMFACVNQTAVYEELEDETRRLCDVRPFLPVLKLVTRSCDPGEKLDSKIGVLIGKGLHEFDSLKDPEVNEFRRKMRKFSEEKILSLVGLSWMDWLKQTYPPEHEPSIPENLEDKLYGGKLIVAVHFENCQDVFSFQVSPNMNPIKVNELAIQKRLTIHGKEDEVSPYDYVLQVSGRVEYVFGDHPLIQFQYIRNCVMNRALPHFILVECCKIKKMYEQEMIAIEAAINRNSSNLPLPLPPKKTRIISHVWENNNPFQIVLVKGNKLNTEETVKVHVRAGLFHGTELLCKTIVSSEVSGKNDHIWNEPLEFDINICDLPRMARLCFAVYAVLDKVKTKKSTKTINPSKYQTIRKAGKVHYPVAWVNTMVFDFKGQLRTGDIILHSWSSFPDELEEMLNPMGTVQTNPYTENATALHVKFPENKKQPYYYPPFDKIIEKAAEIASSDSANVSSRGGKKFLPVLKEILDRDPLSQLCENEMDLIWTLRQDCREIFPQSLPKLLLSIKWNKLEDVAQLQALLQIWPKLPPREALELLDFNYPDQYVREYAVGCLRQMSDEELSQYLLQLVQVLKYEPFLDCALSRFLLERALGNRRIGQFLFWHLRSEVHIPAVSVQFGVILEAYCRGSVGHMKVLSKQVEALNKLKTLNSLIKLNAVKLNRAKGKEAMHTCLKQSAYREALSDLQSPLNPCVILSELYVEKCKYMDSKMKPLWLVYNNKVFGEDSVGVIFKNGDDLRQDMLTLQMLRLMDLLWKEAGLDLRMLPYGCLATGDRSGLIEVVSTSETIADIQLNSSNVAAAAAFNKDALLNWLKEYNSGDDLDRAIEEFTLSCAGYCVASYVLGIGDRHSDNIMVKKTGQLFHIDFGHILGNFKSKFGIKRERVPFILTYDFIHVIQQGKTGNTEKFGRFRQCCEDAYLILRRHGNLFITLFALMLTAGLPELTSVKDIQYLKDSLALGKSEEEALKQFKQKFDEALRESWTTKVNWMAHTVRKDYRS
T1 sequence (P27986 whole entry partner): as the sequence (P27986 whole entry partner) above

| IC50 (PI3Kβ; Table 2a, same assay) | IC50 (PI3Kδ; Table 2a, same assay) | IC50 (PI3Kγ; Table 2a, same assay) | IC50 (PI3Kβ; [1]) | IC50 (PI3Kδ; [1]) | IC50 (PI3Kγ) | IC50 (PI3Kγ; [1]) | SMILES |
| --- | --- | --- | --- | --- | --- | --- | --- |
| 19 nM | 13 nM | > 10000 nM |  |  |  |  | C[C@@H](Nc1nc(N)nc(N)c1C#N)c1nc2c(Cl)cc(F)cc2c(=O)n1-c1cc[nH]n1 [Compound 175, (R)-2,4-diamino-6-((1-(8-chloro-6-fluoro-4-oxo-3-(1H-pyrazol-3-yl)-3,4-dihydroquinazolin-2-yl)ethyl)amino)pyrimidine-5-carbonitrile] |
|  |  |  | 3600 nM | 2400 nM | > 10000 nM |  | C[C@H](Nc1nc(Cl)nc2[nH]ncc12)c1nc2cccc(Cl)c2c(=O)n1-c1cc[nH]n1 [Compound 91, (S)-5-chloro-2-(1-((6-chloro-1H-pyrazolo[3,4-d]pyrimidin-4-yl)amino)ethyl)-3-(1H-pyrazol-3-yl)quinazolin-4(3H)-one] |
|  |  |  | 2 nM | 0.7 nM |  | 71 nM | Cc1nc(N)nc(N[C@H](c2nc3cccc(Cl)c3c(=O)n2-c2cn[nH]c2)C2CC2)c1C#N [Compound 27, (S)-2-amino-4-(((5-chloro-4-oxo-3-(1H-pyrazol-4-yl)-3,4-dihydroquinazolin-2-yl)(cyclopropyl)methyl)amino)-6-methylpyrimidine-5-carbonitrile] |
|  |  |  | 510 nM | 260 nM | > 10000 nM |  | CC[C@H](NC(=O)c1nccnc1N)c1nc2c(Cl)ccc(Cl)c2c(=O)n1-c1cc[nH]n1 [Compound 118, (S)-3-amino-N-(1-(5,8-dichloro-4-oxo-3-(1H-pyrazol-3-yl)-3,4-dihydroquinazolin-2-yl)propyl)pyrazine-2-carboxamide] |
|  |  |  | 17 nM | 4 nM |  | 2200 nM | CC[C@H](Nc1nc(N)nc(N)c1C#N)c1nc2ccc(F)cc2c(=O)n1-c1cc[nH]n1 [Compound 112, (S)-2,4-diamino-6-((1-(6-fluoro-4-oxo-3-(1H-pyrazol-3-yl)-3,4-dihydroquinazolin-2-yl)propyl)amino)pyrimidine-5-carbonitrile] |
| 1 nM | 0.2 nM | 710 nM |  |  |  |  | C[C@H](Nc1nc(N)nc(N)c1C#N)c1nc2c(Cl)cc(F)cc2c(=O)n1-c1cc[nH]n1 [Compound 279, (S)-2,4-diamino-6-((1-(8-chloro-6-fluoro-4-oxo-3-(1H-pyrazol-3-yl)-3,4-dihydroquinazolin-2-yl)ethyl)amino)pyrimidine-5-carbonitrile] |
|  |  |  | 5 nM | 3 nM |  | 680 nM | N#Cc1c(N)nc(N)nc1N[C@@H](c1ccccc1)c1nc2cccc(Cl)c2c(=O)n1-c1cc[nH]n1 [Compound 105, (S)-2,4-diamino-6-(((5-chloro-4-oxo-3-(1H-pyrazol-3-yl)-3,4-dihydroquinazolin-2-yl)(phenyl)methyl)amino)pyrimidine-5-carbonitrile] |
| 320 nM | 36 nM | > 10000 nM |  |  |  |  | Cc1c[nH]nc1-n1c([C@@H](Nc2nc(N)nc(Cl)c2C#N)C2CC2)nc2c(C#N)cccc2c1=O [Compound 246, (S)-2-(((2-amino-6-chloro-5-cyanopyrimidin-4-yl)amino)(cyclopropyl)methyl)-3-(4-methyl-1H-pyrazol-3-yl)-4-oxo-3,4-dihydroquinazoline-8-carbonitrile] |
| 1 nM | 0.9 nM | 2700 nM |  |  |  |  | C[C@H](Nc1nc(N)nc(N)c1C#N)c1nc2c(C#N)cc(F)cc2c(=O)n1-c1cc[nH]n1 [Compound 272, (S)-2-(1-((2,6-diamino-5-cyanopyrimidin-4-yl)amino)ethyl)-6-fluoro-4-oxo-3-(1H-pyrazol-3-yl)-3,4-dihydroquinazoline-8-carbonitrile] |
| 85 nM | 49 nM | 5000 nM |  |  |  |  | C[C@H](Nc1nc(N)nc(N)c1Cl)c1nc2ccc(Cl)c(C(F)F)c2c(=O)n1-c1cc[nH]n1 [Compound 229, (S)-6-chloro-2-(1-((2,6-diamino-5-chloropyrimidin-4-yl)amino)ethyl)-5-(difluoromethyl)-3-(1H-pyrazol-3-yl)quinazolin-4(3H)-one] |
|  |  |  | 2 nM | 1 nM |  | 560 nM | C[C@H](Nc1nc(N)nc(N)c1C#N)c1nc2ccc(F)cc2c(=O)n1-c1cc[nH]n1 [Compound 115, (S)-2,4-diamino-6-((1-(6-fluoro-4-oxo-3-(1H-pyrazol-3-yl)-3,4-dihydroquinazolin-2-yl)ethyl)amino)pyrimidine-5-carbonitrile] |
| 29 nM | 26 nM | 2300 nM |  |  |  |  | N#Cc1c(N[C@H](c2nc3cccc(C(F)F)c3c(=O)n2-c2cc[nH]n2)C2CC2)nc(N)nc1C(F)F [Compound 177, (S)-2-amino-4-((cyclopropyl(5-(difluoromethyl)-4-oxo-3-(1H-pyrazol-3-yl)-3,4-dihydroquinazolin-2-yl)methyl)amino)-6-(difluoromethyl)pyrimidine-5-carbonitrile] |
| 25 nM | 9 nM | 840 nM |  |  |  |  | C[C@H](Nc1nc(N)nc(C(F)F)c1C#N)c1nc2c(Cl)cc(F)cc2c(=O)n1-c1cn[nH]c1 [Compound 183, (S)-2-amino-4-((1-(8-chloro-6-fluoro-4-oxo-3-(1H-pyrazol-4-yl)-3,4-dihydroquinazolin-2-yl)ethyl)amino)-6-(difluoromethyl)pyrimidine-5-carbonitrile] |
| 6 nM | 1 nM | 4200 nM |  |  |  |  | Nc1ncnc(N[C@H](c2nc3cccc(Cl)c3c(=O)n2-c2cc[nH]n2)C2CC2)c1Cl [Compound 165, (S)-2-(((6-amino-5-chloropyrimidin-4-yl)amino)(cyclopropyl)methyl)-5-chloro-3-(1H-pyrazol-3-yl)quinazolin-4(3H)-one] |
|  |  |  | 22 nM | 4 nM |  | 780 nM | N#Cc1c(N)nc(N)nc1N1CCC[C@H]1c1nc2cccc(Cl)c2c(=O)n1-c1cc[nH]n1 [Compound 24, (S)-2,4-diamino-6-(2-(5-chloro-4-oxo-3-(1H-pyrazol-3-yl)-3,4-dihydroquinazolin-2-yl)pyrrolidin-1-yl)pyrimidine-5-carbonitrile] |
|  |  |  | 44 nM | 20 nM | > 10000 nM |  | CC[C@H](Nc1nc(N)nc(N)c1Cl)c1nc2c(F)ccc(Cl)c2c(=O)n1-c1cc[nH]n1 [Compound 68, (S)-5-chloro-2-(1-((2,6-diamino-5-chloropyrimidin-4-yl)amino)propyl)-8-fluoro-3-(1H-pyrazol-3-yl)quinazolin-4(3H)-one] |
| 2 nM | 3 nM | 474 nM |  |  |  |  | N#Cc1c(N)nc(N)nc1N[C@H](c1nc2c(C(F)(F)F)cccc2c(=O)n1-c1cc[nH]n1)C1CC1 [Compound 133, (S)-2,4-diamino-6-((cyclopropyl(4-oxo-3-(1H-pyrazol-3-yl)-8-(trifluoromethyl)-3,4-dihydroquinazolin-2-yl)methyl)amino)pyrimidine-5-carbonitrile] |
| 49 nM | 12 nM | 5200 nM |  |  |  |  | Nc1nc(N)c(Cl)c(N[C@H](c2nc3ccc(F)c(Cl)c3c(=O)n2-c2cc[nH]n2)C2CC2)n1 [Compound 261, (S)-5-chloro-2-(cyclopropyl((2,6-diamino-5-chloropyrimidin-4-yl)amino)methyl)-6-fluoro-3-(1H-pyrazol-3-yl)quinazolin-4(3H)-one] |
| 4 nM | 6 nM | 370 nM |  |  |  |  | CC[C@H](Nc1nc(N)nc(N)c1C#N)c1nc2cccc(C3CC3)c2c(=O)n1-c1cc[nH]n1 [Compound 245, (S)-2,4-diamino-6-((1-(5-cyclopropyl-4-oxo-3-(1H-pyrazol-3-yl)-3,4-dihydroquinazolin-2-yl)propyl)amino)pyrimidine-5-carbonitrile] |
|  |  |  | 210 nM | 44 nM | > 10000 nM |  | CC[C@H](Nc1nc(N)nc(N)c1Cl)c1nc2ccc(F)cc2c(=O)n1-c1cc[nH]n1 [Compound 116, (S)-2-(1-((2,6-diamino-5-chloropyrimidin-4-yl)amino)propyl)-6-fluoro-3-(1H-pyrazol-3-yl)quinazolin-4(3h)-one] |
| 7 nM | 6 nM | 1800 nM |  |  |  |  | C[C@H](Nc1nc(N)nc(N)c1C#N)c1nc2ccc(Cl)c(C(F)F)c2c(=O)n1-c1cc[nH]n1 [Compound 230, (S)-2,4-diamino-6-((1-(6-chloro-5-(difluoromethyl)-4-oxo-3-(1H-pyrazol-3-yl)-3,4-dihydroquinazolin-2-yl)ethyl)amino)pyrimidine-5-carbonitrile] |

| SMILES | IC50 (PI3Kβ; Table 2a, same assay) | IC50 (PI3Kδ; Table 2a, same assay) | IC50 (PI3Kγ; Table 2a, same assay) | IC50 (PI3Kβ; [1]) | IC50 (PI3Kδ; [1]) | IC50 (PI3Kγ) | IC50 (PI3Kγ; [1]) |
| --- | --- | --- | --- | --- | --- | --- | --- |
| C[C@H](Nc1nc(N)nc(N)c1Cl)c1nc2c(F)ccc(Cl)c2c(=O)n1-c1cn[nH]c1 [Compound 159, (S)-5-chloro-2-(1-((2,6-diamino-5-chloropyrimidin-4-yl)amino)ethyl)-8-fluoro-3-(1H-pyrazol-4-yl)quinazolin-4(3H)-one] | 22 nM | 3 nM | 1600 nM |  |  |  |  |
| Cc1cc(-n2c([C@H](C)Nc3ncnc4scnc34)nc3cccc(Cl)c3c2=O)n[nH]1 [Compound 8, (S)-5-chloro-3-(5-methyl-1H-pyrazol-3-yl)-2-(1-(thiazolo[5,4-d]pyrimidin-7-ylamino)ethyl)quinazolin-4(3H)-one] |  |  |  | 41 nM | 11 nM | > 10000 nM |  |
| C[C@H](Nc1ncnc2sncc12)c1nc2cccc(Cl)c2c(=O)n1-c1cc[nH]n1 [Compound 167, (S)-5-chloro-2-(1-(isothiazolo[5,4-d]pyrimidin-4-ylamino)ethyl)-3-(1H-pyrazol-3-yl)quinazolin-4(3H)-one] | 110 nM | 18 nM | > 10000 nM |  |  |  |  |
| C[C@H](Nc1nc(N)nc(N)c1Cl)c1nc2cc(F)cc(F)c2c(=O)n1-c1cc[nH]n1 [Compound 236, (S)-2-(1-((2,6-diamino-5-chloropyrimidin-4-yl)amino)ethyl)-5,7-difluoro-3-(1H-pyrazol-3-yl)quinazolin-4(3H)-one] | 120 nM | 120 nM | > 10000 nM |  |  |  |  |
